This note sets out measurements from patent publication US8685974B2 (Bayer CropScience AG, priority 2009, dated 2014).

SMILES strings stand for the structures. Like-named read-outs stand apart in the source and are kept apart here. Marks after values point to notes of the source that are not given here.

In one data set the test system is Pyrenophora teres. In words: In vivo test on Pyrenophora teres (barley net blotch). The conditions noted are these: dose of 500 ppm; barley plants; grading 12 days after contamination. The procedure:
In Vivo Test on Pyrenophora teres (Barley Net Blotch)
The active ingredients tested are prepared by homogenization in a mixture of acetone/Tween/DMSO, then diluted with water to obtain the desired active material concentration.
Barley plants (Plaisant variety), sown on a 50/50 peat soil-pozzolana substrate in starter cups and grown at 12° C., are treated at the 1-leaf stage (10 cm tall) by spraying with the active ingredient prepared as described above.
Plants, used as controls, are treated with an aqueous solution not containing the active material.
After 24 hours, the plants are contaminated by spraying them with an aqueous suspension of Pyrenophora teres spores (12,000 spores per ml). The spores are collected from a 12-day-old culture. The contaminated barley plants are incubated for 24 hours at about 20° C. and at 100% relative humidity, and then for 12 days at 80% relative humidity.
Grading is carried out 12 days after the contamination, in comparison with the control plants.

The next data set deals with Alternaria solani. The data set can be described thus: Alternaria test (tomato) / protective. In kind it is in vivo. As to conditions: 500 ppm active compound, protective spray, evaluated 7 days after inoculation. The protocol:
Alternaria Test (Tomato)/Protective
Solvent: 49 parts by weight of N,N-dimethylformamide
Emulsifier: 1 part by weight of alkylaryl polyglycol ether
To produce a suitable preparation of active compound, 1 part by weight of active compound is mixed with the stated amounts of solvent and emulsifier, and the concentrate is diluted with water to the desired concentration.
To test for protective activity, young tomato plants are sprayed with the preparation of active compound at the stated application rate. […] The plants then remain at 96% rel. atmospheric humidity and a temperature of 20° C.
Evaluation is carried out 7 days after the inoculation. 0% means an efficacy which corresponds to that of the control, whereas an efficacy of 100% means that no infection is observed.

In the next data set the test system is Fusarium graminearum. In kind it is cell-based. The conditions noted are these: 50 μM; for % Inhibition of DON/AcDON at 50 μM: 7 days at 28° C.

In the data set with Pyrenophora teres, `Clc1ccc(-c2nn(C3CCCCC3)cc2-c2ccncc2)s1` [Example 11] had a protection of 89%. The log p (pH 2.7) is 2.54^[b].

As for `CC(C)CC(C)n1cc(-c2ccncc2)c(-c2ccc(Cl)s2)n1` (stereo not drawn) [Example 13], the protection in the data set on Pyrenophora teres turned out to be 94%. The log p (pH 2.7) is 2.7^[b].

For the compound `CC(C)(C)Cn1cc(-c2ccncc2)c(-c2ccc(Cl)s2)n1` [Example 24], the protection with Pyrenophora teres was determined as 90%. The log p (pH 2.7) was 2.39^[b].

`CC(C)Cn1cc(-c2ccncn2)c(-c2ccc(Cl)s2)n1` [Example 26]: in the data set on Pyrenophora teres, the protection is on record as 70%. In addition, the log p (pH 2.7) is 3.31^[b].

In the data set on Pyrenophora teres, `CCn1cc(-c2ccncc2)c(-c2ccc(Cl)s2)n1` [Example 57] had a protection of 95%. Moreover, the “logP value of the minor isomer (in parenthesis in column Isomer ratio [d])” value (minor isomer, main value of the example measured by method [b], pH 2.7) was “(1.42)”. Moreover, under “pH 2.7”, the log p is 1.5^[b].

On to `CCC(C)n1cc(-c2ccnc(N(C(C)=O)C(C)=O)n2)c(-c2ccc(Cl)s2)n1` (stereo not drawn) [Example 150], for which the protection in the data set with Pyrenophora teres is on record as 95%. Further, the log p (pH 2.3) is 3.72^[a].

As for `CCC(C)n1cc(-c2ccnc(NC(C)=O)n2)c(-c2ccc(Cl)s2)n1` (stereo not drawn) [Example 151], the protection in the data set on Pyrenophora teres turned out to be 90%. For the same compound, the log p (pH 2.3) was 3^[a].

For the compound `CCCc1c(-c2ccnc(NC(=O)CC)c2)c(-c2sccc2C)nn1C` [Example 166], the protection in the data set with Pyrenophora teres is 80%. Moreover, the log p was 2.29^[b] (pH 2.7) and 2.71^[c]; (pH 7.8). Further, the “logP value of the minor isomer” value by setting is: (pH 2.7) 2.39^[b]); (pH 7.8) “(2.84^[c];”.

`CC(C)C(=O)Nc1nccc(-c2cn(C(C)C)nc2-c2ccc(Cl)s2)n1` [Example 174] showed a protection in the data set on Pyrenophora teres of 90%. Besides, the log p (pH 2.3) was 3.29^[a].

The compound `CC(=O)Nc1nccc(-c2cn(C(C)C)nc2-c2ccc(Cl)s2)n1` [Example 176] came in with a protection with Pyrenophora teres of 90%. The log p (pH 2.3) was 2.59^[a].

For the compound `CC(C)n1cc(-c2ccnc(NCC3CC3)n2)c(-c2ccc(Cl)s2)n1` [Example 183], the protection in the data set with Pyrenophora teres turned out to be 70%. Also, the log p (pH 2.3) is 3.02^[a].

With `C=CC(C)n1cc(-c2ccncc2)c(-c2cc3ccsc3s2)n1` (stereo not drawn) [Example 368], in the data set with Alternaria solani, the efficacy worked out at 78%. In the data set on Fusarium graminearum, the “% Inhibition of fungal growth at 50 μM” value came out at 100% and the “% Inhibition of DON/AcDON at 50 μM” value was determined as 99%. Further, the log p (pH 2.7) is 1.94^[b].

In the data set on Alternaria solani, `CC(C)Cn1cc(-c2ccncc2)c(-c2cc3ccsc3s2)n1` [Example 369] yielded an efficacy of 94%. Also, in the data set on Fusarium graminearum, the “% Inhibition of fungal growth at 50 μM” value is reported as 100% and the “% Inhibition of DON/AcDON at 50 μM” value turned out to be 99%. In addition, the log p (pH 2.7) was 2.04^[b].

With `FC(F)Cn1cc(-c2ccncc2)c(-c2cc3ccsc3s2)n1` [Example 371], the efficacy in the data set on Alternaria solani came to 78%. In addition, in the data set on Fusarium graminearum, the “% Inhibition of fungal growth at 50 μM” value came out at 82% and the “% Inhibition of DON/AcDON at 50 μM” value is recorded as 99%. Under “pH 2.7”, the log p is 1.63^[b].

As for `Fc1ccc(-c2nn(CC(F)F)cc2-c2ccncc2)s1` [Example 373], the efficacy in the data set on Alternaria solani came to 100%. Also, in the data set with Fusarium graminearum, the “% Inhibition of fungal growth at 50 μM” value stood at 97% and the “% Inhibition of DON/AcDON at 50 μM” value is 99%. Besides, the log p (pH 2.7) was 1.34^[b].

`CCOCCn1cc(-c2ccncc2)c(-c2ccc(F)s2)n1` [Example 374] came in with an efficacy with Alternaria solani of 94%. Moreover, in the data set with Fusarium graminearum, the “% Inhibition of fungal growth at 50 μM” value was 58% and the “% Inhibition of DON/AcDON at 50 μM” value is recorded as 99%. Further, under “pH 2.7”, the log p was 1.43^[b].

As for `FCCn1cc(-c2ccncc2)c(-c2ccc(F)s2)n1` [Example 375], in the data set on Alternaria solani, the efficacy is listed as 100%. Moreover, in the data set with Fusarium graminearum, the “% Inhibition of fungal growth at 50 μM” value is given as 78% and the “% Inhibition of DON/AcDON at 50 μM” value is recorded as 99%. Moreover, for the setting “pH 2.7”, the log p is 1.16^[b].

In the data set with Alternaria solani, `C=CC(C)n1cc(-c2ccncc2)c(-c2ccc(F)s2)n1` (stereo not drawn) [Example 376] displayed an efficacy of 100%. Also, in the data set on Fusarium graminearum, the “% Inhibition of fungal growth at 50 μM” value stood at 84% and the “% Inhibition of DON/AcDON at 50 μM” value came out at 99%. The log p (pH 2.7) is 1.73^[b].

`CCn1cc(-c2ccncc2)c(-c2ccc(F)s2)n1` [Example 377]: the efficacy in the data set on Alternaria solani was determined as 100%. For the same compound, in the data set on Fusarium graminearum, the “% Inhibition of fungal growth at 50 μM” value is on record as 89% and the “% Inhibition of DON/AcDON at 50 μM” value came out at 99%. Besides, under “pH 2.7”, the log p is 1.28^[b] and the “logP value of the minor isomer” value was “(1.22)”.

The compound `Fc1ccc(-c2nn(CC(F)(F)F)cc2-c2ccncc2)s1` [Example 378] came in with an efficacy in the data set with Alternaria solani of 100%. Besides, in the data set with Fusarium graminearum, the “% Inhibition of fungal growth at 50 μM” value came to 54% and the “% Inhibition of DON/AcDON at 50 μM” value is on record as 99%. Further, under “pH 2.7”, the log p is 1.64^[b] and the “logP value of the minor isomer” value is reported as “(1.46)”.

Consider `CC(C)Cn1cc(-c2ccncc2)c(-c2ccc(F)s2)n1` [Example 379], for which, in the data set on Alternaria solani, the efficacy is 94%. Besides, in the data set with Fusarium graminearum, the “% Inhibition of fungal growth at 50 μM” value was found to be 90% and the “% Inhibition of DON/AcDON at 50 μM” value is 99%. Under “pH 2.7”, the log p was 1.82^[b] and the “logP value of the minor isomer” value was “(1.72)”.

As for `CCC(CC)n1cc(-c2ccncc2)c(-c2ccc(F)s2)n1` [Example 380], the efficacy with Alternaria solani is listed as 89%. Besides, in the data set with Fusarium graminearum, the “% Inhibition of fungal growth at 50 μM” value is 82% and the “% Inhibition of DON/AcDON at 50 μM” value worked out at 99%. Besides, where the note is “pH 2.7”, the log p was 2.04^[b] and the “logP value of the minor isomer” value is reported as “(1.95)”.

In the data set with Alternaria solani, `Fc1ccc(-c2nn(CCCl)cc2-c2ccncc2)s1` [Example 381] yielded an efficacy of 94%. In addition, in the data set on Fusarium graminearum, the “% Inhibition of fungal growth at 50 μM” value is 91% and the “% Inhibition of DON/AcDON at 50 μM” value amounted to 99%. Besides, where the note is “pH 2.7”, the log p was 1.45^[b] and the “logP value of the minor isomer” value is on record as “(1.34)”.

Compound `O=C1OCCC1n1cc(-c2ccncc2)c(-c2ccc(Br)s2)n1` (stereo not drawn) [Example 385] registered an efficacy in the data set with Alternaria solani of 94%. For the same compound, in the data set with Fusarium graminearum, the “% Inhibition of fungal growth at 50 μM” value came to 17% and the “% Inhibition of DON/AcDON at 50 μM” value is listed as 82%. Moreover, the log p (pH 2.7) is 1.52^[b].

In the case of `C=CC(C)n1cc(-c2ccncc2)c(-c2ccc(Br)s2)n1` (stereo not drawn) [Example 389], the efficacy in the data set on Alternaria solani stood at 94%. Besides, in the data set with Fusarium graminearum, the “% Inhibition of fungal growth at 50 μM” value was found to be 96% and the “% Inhibition of DON/AcDON at 50 μM” value is recorded as 99%. Also, under “pH 2.7”, the log p was 2.03^[b] and the “logP value of the minor isomer” value is recorded as “(1.88)”.

`CCn1cc(-c2ccncc2)c(-c2ccc(Br)s2)n1` [Example 390] showed an efficacy with Alternaria solani of 100%. In addition, in the data set with Fusarium graminearum, the “% Inhibition of fungal growth at 50 μM” value was 100% and the “% Inhibition of DON/AcDON at 50 μM” value was 99%. Also, for the setting “pH 2.7”, the log p was 1.6^[b] and the “logP value of the minor isomer” value is reported as “(1.49)”.

Consider `FC(F)(F)Cn1cc(-c2ccncc2)c(-c2ccc(Br)s2)n1` [Example 391], for which, in the data set on Alternaria solani, the efficacy is recorded as 100%. In addition, in the data set on Fusarium graminearum, the “% Inhibition of fungal growth at 50 μM” value came out at 97% and the “% Inhibition of DON/AcDON at 50 μM” value turned out to be 99%. Moreover, the log p (pH 2.7) was 1.98^[b].

`CCC(C)n1nc(-c2ccc(Cl)s2)c(-c2ccncc2)c1Br` (stereo not drawn) [Example 394] registered an efficacy in the data set with Alternaria solani of 94%. Further, in the data set with Fusarium graminearum, the “% Inhibition of fungal growth at 50 μM” value turned out to be 92% and the “% Inhibition of DON/AcDON at 50 μM” value was determined as 100%. Moreover, the log p (pH 2.7) is 3.69^[b].

Regarding `CC(C)Cn1nc(-c2ccc(Cl)s2)c(-c2ccncc2)c1Br` [Example 395], in the data set on Alternaria solani, the efficacy came to 78%. In the data set with Fusarium graminearum, the “% Inhibition of fungal growth at 50 μM” value was determined as 0% and the “% Inhibition of DON/AcDON at 50 μM” value worked out at 99%. Also, the log p (pH 2.7) was 3.58^[b].
